These results are taken from patent US20240254118A1, “PRMT5 INHIBITORS AND USES THEREOF” (Gilead Sciences, Inc., priority 2022, published 2024).

Experiment [1] deals with HCT116 MTAP-deleted cells. The experiment in a line: Cell viability assay (CellTiter-Glo, 7 days), HCT116 MTAP-deleted. The settings on record: Homo sapiens, HCT-116, 168 h. (In general: ATP-based viability assays read luminescence as a measure of living cells.)
Experiment [2] has as its system SDMA signal (PRMT5 inhibition) in HCT116 MTAP-deleted cells. The experiment in a line: Symmetric di-methyl arginine image-based high content screen assay (SDMA assay), HCT116 MTAP-deleted. In kind it is cell-based. The settings on record: SDMA assay; for EC50: Homo sapiens, HCT-116, 72 h, 3 days of treatment, cell line not given, taken as HCT116 MTAP-deleted, read-out: EC50 (SDMA assay). In short, it runs like this:
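HCT116 MTAP-deleted cells treated with compound until Day 3, then formalin-fixed, permeabilized and immunostained for SDMA, with DAPI nuclear counterstain. Imaged by high-content microscopy; SDMA read-out is mean Alexa 488 intensity per DAPI-defined cell, reflecting PRMT5 inhibition.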

Where [3] appears, read: taken as HCT116 WT versus MTAP-deleted.
Where [4] appears, read: taken as HCT116 WT vs MTAP-deleted.

In general, CC50 refers to the concentration at which the toxic effect on the cells reaches its halfway point. A lower CC50 goes with harm at low concentration. By EC50 is commonly meant the midpoint of the concentration-response curve. Turning to `CN1CCN(N(Cc2ccc(C(F)(F)F)cn2)C(=O)c2ccc3nc(N)c4cnn(C)c4c3c2)C(=O)C1` [Example 382, 4-amino-1-methyl-N-(4-methyl-2-oxo-piperazin-1-yl)-N-[[5-(trifluoromethyl)-2-pyridyl]methyl]pyrazolo[4,3-c]quinoline-8-carboxamide], the CC50 in experiment [1] was less than 100 nM. Also, the EC50 in experiment [2] is 1 to 5 nM. Moreover, the “EC50 selectivity (SDMA assay)” value in experiment [2] (setting [3]) is on record as 167.

With `CN1CCN(N(Cc2ccc(C(F)(F)F)cn2)C(=O)c2cc3c(cc2F)nc(N)c2cnn(C)c23)C(=O)C1` [Example 383, 4-amino-7-fluoro-1-methyl-N-(4-methyl-2-oxo-piperazin-1-yl)-N-[[5-(trifluoromethyl)-2-pyridyl]methyl]pyrazolo[4,3-c]quinoline-8-carboxamide], in experiment [1], the CC50 was less than 100 nM. Moreover, the EC50 in experiment [2] fell in the range of 1 to 5 nM. The “EC50 selectivity (SDMA assay)” value in experiment [2] (setting [3]) turned out to be 168.

`CC(=O)N1CCN(N(Cc2ccc(C(F)(F)F)cn2)C(=O)c2ccc3nc(N)c4cnn(C)c4c3c2)CC1` [Example 384, N-(4-acetylpiperazin-1-yl)-4-amino-1-methyl-N-[[5-(trifluoromethyl)-2-pyridyl]methyl]pyrazolo[4,3-c]quinoline-8-carboxamide] showed a CC50 in experiment [1] of 100 to 1000 nM. The EC50 in experiment [2] is 1 to 5 nM. In addition, in experiment [2] (setting [3]), the “EC50 selectivity (SDMA assay)” value is listed as 283.

Compound `COCC(=O)N(C)N(Cc1ccc(C(F)(F)F)cn1)C(=O)c1ccc2nc(N)c3cnn(C)c3c2c1` [Example 385, 4-amino-N′-(2-methoxyacetyl)-N′,1-dimethyl-N-[[5-(trifluoromethyl)-2-pyridyl]methyl]pyrazolo[4,3-c]quinoline-8-carbohydrazide] showed a CC50 in experiment [1] of less than 100 nM. Moreover, the EC50 in experiment [2] was in the range of 1 to 5 nM. Besides, in experiment [2] (setting [3]), the “EC50 selectivity (SDMA assay)” value was 52.

In turn, `COCC(=O)N(C)N(Cc1ccc(C(F)(F)F)cn1)C(=O)c1cc2c(cc1F)nc(N)c1cnn(C)c12` [Example 386, 4-amino-7-fluoro-N′-(2-methoxyacetyl)-N′,1-dimethyl-N-[[5-(trifluoromethyl)-2-pyridyl]methyl]pyrazolo[4,3-c]quinoline-8-carbohydrazide] had a 50% cytotoxic concentration (CC50) in experiment [1] of less than 100 nM. The concentration for a half-maximal effect (EC50) in experiment [2] was in the range of 1 to 5 nM. The “EC50 selectivity (SDMA assay)” value in experiment [2] (setting [3]) was determined as 20.

In turn, `CC(=O)N(C)N(Cc1ccc(C#CC2CCCO2)cc1F)C(=O)c1ccc2nc(N)c3cnn(C)c3c2c1` (stereo not drawn) [Example 387, N′-acetyl-4-amino-N-[[2-fluoro-4-(2-tetrahydrofuran-2-ylethynyl)phenyl]methyl]-N′,1-dimethyl-pyrazolo[4,3-c]quinoline-8-carbohydrazide] yielded a CC50 in experiment [1] of less than 100 nM. Besides, the 50% effective concentration (EC50) in experiment [2] fell in the range of 1 to 5 nM. Moreover, in experiment [2] (setting [3]), the “EC50 selectivity (SDMA assay)” value amounted to 44.

As to `CC(=O)N(C)N(Cc1ccc(C#CC2CCOC2)cc1F)C(=O)c1ccc2nc(N)c3cnn(C)c3c2c1` (stereo not drawn) [Example 388, N′-acetyl-4-amino-N-[[2-fluoro-4-(2-tetrahydrofuran-3-ylethynyl)phenyl]methyl]-N′,1-dimethyl-pyrazolo[4,3-c]quinoline-8-carbohydrazide], in experiment [1], the CC50 was less than 100 nM. Also, the EC50 in experiment [2] is less than 1 nM. Besides, in experiment [2] (setting [3]), the “EC50 selectivity (SDMA assay)” value was found to be 40.

Consider `CC(=O)N(C)N(Cc1ccc(C#CC(C)(C)O)cc1F)C(=O)c1ccc2nc(N)c3cnn(C)c3c2c1` [Example 389, N′-acetyl-4-amino-N-[[2-fluoro-4-(3-hydroxy-3-methyl-but-1-ynyl)phenyl]methyl]-N′,1-dimethyl-pyrazolo[4,3-c]quinoline-8-carbohydrazide], for which the CC50 in experiment [1] is less than 100 nM. Besides, the EC50 in experiment [2] is 1 to 5 nM. Besides, the “EC50 selectivity (SDMA assay)” value in experiment [2] (setting [3]) was found to be 31.

As for `CC(=O)N(C)N(Cc1ccc(C#CC23CC(C2)C3)cc1F)C(=O)c1ccc2nc(N)c3cnn(C)c3c2c1` [Example 390, N′-acetyl-4-amino-N-[[4-[2-(1-bicyclo[1.1.1]pentanyl)ethynyl]-2-fluoro-phenyl]methyl]-N′,1-dimethyl-pyrazolo[4,3-c]quinoline-8-carbohydrazide], the CC50 in experiment [1] was less than 100 nM. Also, the EC50 in experiment [2] lay in the range of 1 to 5 nM. The “EC50 selectivity (SDMA assay)” value in experiment [2] (setting [3]) was found to be 27.

Regarding `CN(C(=O)C1CC1)N(Cc1ccc(C#CC2CCCO2)cc1F)C(=O)c1ccc2nc(N)c3cnn(C)c3c2c1` (stereo not drawn) [Example 391, 4-amino-N′-(cyclopropanecarbonyl)-N-(2-fluoro-4-((tetrahydrofuran-2-yl)ethynyl)benzyl)-N′,1-dimethyl-1H-pyrazolo[4,3-c]quinoline-8-carbohydrazide], the cytotoxic concentration (CC50) in experiment [1] was less than 100 nM. Further, the EC50 in experiment [2] lay within 1 to 5 nM. Besides, in experiment [2] (setting [3]), the “EC50 selectivity (SDMA assay)” value is 64.

For the compound `Cn1ncc2c(N)nc3ccc(C(=O)N(Cc4ccc(C(F)(F)F)nc4)N4CCCC4=O)cc3c21` [Example 392, 4-amino-1-methyl-N-(2-oxopyrrolidin-1-yl)-N-[[6-(trifluoromethyl)-3-pyridyl]methyl]pyrazolo[4,3-c]quinoline-8-carboxamide], the CC50 in experiment [1] was less than 100 nM. Also, in experiment [2], the EC50 was in the range of 1 to 5 nM. In addition, in experiment [2] (setting [3]), the “EC50 selectivity (SDMA assay)” value is given as 285.

`CN(C(=O)C1CC1)N(Cc1ccc(C(F)(F)F)nc1)C(=O)c1ccc2nc(N)c3cnn(C)c3c2c1` [Example 393, 4-amino-N′-(cyclopropanecarbonyl)-N′,1-dimethyl-N-[[6-(trifluoromethyl)-3-pyridyl]methyl]pyrazolo[4,3-c]quinoline-8-carbohydrazide]: the CC50 in experiment [1] is less than 100 nM. Also, in experiment [2], the 50% effective concentration (EC50) fell in the range of 1 to 5 nM. The “EC50 selectivity (SDMA assay)” value in experiment [2] (setting [3]) is 380.

In experiment [1], `COCCN(C)N(Cc1ccc(C(F)(F)F)cc1F)C(=O)c1cc2c(cc1F)nc(N)c1cnn(C)c12` [Example 395, 4-amino-7-fluoro-N-(2-fluoro-4-(trifluoromethyl)benzyl)-N′-(2-methoxyethyl)-N′,1-dimethyl-1H-pyrazolo[4,3-c]quinoline-8-carbohydrazide] registered a CC50 of less than 100 nM. Also, in experiment [2], the half-maximal effective concentration (EC50) lay in the range of 1 to 5 nM. In experiment [2] (setting [3]), the “EC50 selectivity (SDMA assay)” value is recorded as 33.

Compound `COCCN(C)N(Cc1ccc(C(F)(F)F)cc1F)C(=O)c1ccc2nc(N)c3cnn(C)c3c2c1` [Example 396, 4-amino-N-[[2-fluoro-4-(trifluoromethyl)phenyl]methyl]-N′-(2-methoxyethyl)-N′,1-dimethyl-pyrazolo[4,3-c]quinoline-8-carbohydrazide] gave a 50% cytotoxic concentration (CC50) in experiment [1] of less than 100 nM. In experiment [2], the 50% effective concentration (EC50) was in the range of 1 to 5 nM. Besides, in experiment [2] (setting [4]), the “EC50 selectivity (SDMA assay)” value is on record as 135.

For the compound `Cn1ncc2c(N)nc3ccc(C(=O)N(Cc4ccc(C(F)(F)F)cc4F)N4CCOCC4)cc3c21` [Example 397, 4-amino-N-[[2-fluoro-4-(trifluoromethyl)phenyl]methyl]-1-methyl-N-morpholino-pyrazolo[4,3-c]quinoline-8-carboxamide], the CC50 in experiment [1] was less than 100 nM. Moreover, in experiment [2], the EC50 was in the range of 1 to 5 nM. The “EC50 selectivity (SDMA assay)” value in experiment [2] (setting [4]) was found to be 78.

As to `Cn1ncc2c(N)nc3cc(F)c(C(=O)N(Cc4ccc(C(F)(F)F)cc4F)N4CCOCC4)cc3c21` [Example 398, 4-amino-7-fluoro-N-[[2-fluoro-4-(trifluoromethyl)phenyl]methyl]-1-methyl-N-morpholino-pyrazolo[4,3-c]quinoline-8-carboxamide], the CC50 in experiment [1] was less than 100 nM. The EC50 in experiment [2] lay in the range of 1 to 5 nM. Further, the “EC50 selectivity (SDMA assay)” value in experiment [2] (setting [4]) is 31.

On to `CN(C(=O)CC1CC1)N(Cc1ccc(C(F)(F)F)cn1)C(=O)c1ccc2nc(N)c3cnn(C)c3c2c1` [Example 399, 4-amino-N′-(2-cyclopropylacetyl)-N′,1-dimethyl-N-[[5-(trifluoromethyl)-2-pyridyl]methyl]pyrazolo[4,3-c]quinoline-8-carbohydrazide], for which, in experiment [1], the CC50 was less than 100 nM. Also, the EC50 in experiment [2] was 1 to 5 nM. Moreover, the “EC50 selectivity (SDMA assay)” value in experiment [2] (setting [4]) was 358.

As for `CC(=O)N(C)N(Cc1cc2cc(Cl)ccn2n1)C(=O)c1ccc2nc(N)c3cnn(C)c3c2c1` [Example 400, N′-acetyl-4-amino-N-((5-chloropyrazolo[1,5-a]pyridin-2-yl)methyl)-N′,1-dimethyl-1H-pyrazolo[4,3-c]quinoline-8-carbohydrazide], the CC50 in experiment [1] is less than 100 nM. The concentration for a half-maximal effect (EC50) in experiment [2] was less than 1 nM. Also, in experiment [2] (setting [4]), the “EC50 selectivity (SDMA assay)” value was 278.

Turning to `CC(=O)N(C)N(Cc1cc2cc(C(F)(F)F)ccn2n1)C(=O)c1ccc2nc(N)c3cnn(C)c3c2c1` [Example 402, N′-acetyl-4-amino-N′,1-dimethyl-N-((5-(trifluoromethyl)pyrazolo[1,5-a]pyridin-2-yl)methyl)-1H-pyrazolo[4,3-c]quinoline-8-carbohydrazide], the CC50 in experiment [1] was less than 100 nM. Moreover, the EC50 in experiment [2] was less than 1 nM. Further, in experiment [2] (setting [4]), the “EC50 selectivity (SDMA assay)” value worked out at 311.

`CC(=O)N(C)N(Cc1cc2ccc(Cl)cn2n1)C(=O)c1ccc2nc(N)c3cnn(C)c3c2c1` [Example 403, N′-acetyl-4-amino-N-((6-chloropyrazolo[1,5-a]pyridin-2-yl)methyl)-N′,1-dimethyl-1H-pyrazolo[4,3-c]quinoline-8-carbohydrazide] had a CC50 in experiment [1] of less than 100 nM. The EC50 in experiment [2] is less than 1 nM. Besides, in experiment [2] (setting [4]), the “EC50 selectivity (SDMA assay)” value was determined as 476.

As to `CC(NN(Cc1ccc(C(F)(F)F)cn1)C(=O)c1ccc2nc(N)c3cnn(C)c3c2c1)C(F)(F)F` (stereo not drawn) [Example 405, 4-amino-1-methyl-N-((5-(trifluoromethyl)pyridin-2-yl)methyl)-N′-(1,1,1-trifluoropropan-2-yl)-1H-pyrazolo[4,3-c]quinoline-8-carbohydrazide], the CC50 in experiment [1] is less than 100 nM. Moreover, in experiment [2], the EC50 is less than 1 nM. Moreover, the “EC50 selectivity (SDMA assay)” value in experiment [2] (setting [4]) was 154.
